Here are results for 31 molecules from patent US20250059164A1, “IRAK DEGRADERS AND USES THEREOF” (Kymera Therapeutics, Inc., priority 2023, published 2025).

Data set [1] can be described thus: Rodent pharmacokinetics (rat PK). It counts as in vivo. The following applies: po, dosed intravenously or orally by gavage, plasma, read-out: F % (bioavailability). On the procedure:
All studies related to handling, care, and treatment of rats in the study were performed according to the guidelines approved by the Institutional Animal Care and Use Committee (IACUC). All rats had access to food and water ad libitum. Rats were dosed intravenously or orally by gavage. Whole blood was collected from the jugular vein immediately prior to dosing and at 5 (intravenously administered drugs only), 15, and 30 min and 1, 2, 4, 8, and 24 h after drug administration. After sampling, whole blood was centrifuged at 4,000×g for 5 min at 4° C. to obtain plasma.
The letter codes for bioavailability (F %) include: A (≥5%) and B (≤5%).

In the next data set the target is T1, IRAK4 (Homo sapiens, UniProt Q9NWZ3).
T1 construct: endogenous in cells; host or cells: OCI-LY10
T1 sequence (Q9NWZ3 1-460): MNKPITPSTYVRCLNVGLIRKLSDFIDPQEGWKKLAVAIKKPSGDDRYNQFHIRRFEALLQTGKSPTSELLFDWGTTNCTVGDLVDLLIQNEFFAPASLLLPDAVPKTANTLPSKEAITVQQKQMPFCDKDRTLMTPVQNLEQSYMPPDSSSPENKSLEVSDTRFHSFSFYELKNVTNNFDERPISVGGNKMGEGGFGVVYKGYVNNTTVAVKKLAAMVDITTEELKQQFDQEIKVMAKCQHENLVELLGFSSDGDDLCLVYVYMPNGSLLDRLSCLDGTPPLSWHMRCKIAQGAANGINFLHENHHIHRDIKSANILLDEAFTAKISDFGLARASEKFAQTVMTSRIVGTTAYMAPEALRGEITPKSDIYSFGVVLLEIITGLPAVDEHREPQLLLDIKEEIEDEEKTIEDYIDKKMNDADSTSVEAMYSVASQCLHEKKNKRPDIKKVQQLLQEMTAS
Kind of data set: IRAK4 MSD degradation in OCI-LY10. It counts as cell-based. The following applies: OCI-LY10 cells, 24 hrs, Meso Scale Discovery. In short, it runs like this:
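OCI-LY10 cells treated 4 to 24 hours at 37° C. with 8-dose 1:3 series, top 1 to 10 μM. IRAK4 in lysates quantified by MSD sandwich immunoassay (mouse capture, rabbit detection, SULFO-TAG anti-rabbit). DC50 from three-parameter logistic fit.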

As a reminder, the bioavailability is the share of a dose that reaches the circulation, judged against a reference dose that is usually intravenous. What is called DC50 is the concentration giving 50% degradation. `Cn1c(=O)n(C2CCC(=O)NC2=O)c2cccc(N3CCN(C[C@H]4CC[C@H](n5cc6cc(NC(=O)c7cncc(C(F)(F)F)n7)ccc6n5)CC4)C[C@@H]3C(F)(F)F)c21` (single isomer, unassigned) [I-313]: the bioavailability in data set [1] was ≥ 5%. Besides, at IRAK4, the DC50 is < 0.01 µM.

`Cn1nc(C2CCC(=O)NC2=O)c2cccc([C@H]3CCN(C[C@H]4CC[C@H](n5cc6cc(NC(=O)c7cncc(C#N)c7)c(C(C)(C)O)cc6n5)CC4)C[C@@H]3F)c21` (single isomer, unassigned) [I-363]: the bioavailability in data set [1] is ≥ 5%. The DC50 on IRAK4 is < 0.01 µM.

As to `Cn1c(=O)n(C2CCC(=O)NC2=O)c2cccc([C@@H]3CCN(C[C@H]4CC[C@H](c5cc6cc(NC(=O)c7cncc(C(F)(F)F)n7)ccn6n5)CC4)C[C@H]3F)c21` (stereo partly drawn) [I-194], the bioavailability in data set [1] is ≥ 5%. In addition, the DC50 on IRAK4 is < 0.01 µM.

Turning to `Cn1c(=O)n(C2CCC(=O)NC2=O)c2ccc(F)c(N3CC(N4CCN([C@H]5CC[C@H](n6cc(NC(=O)c7cnn8ccc(N9C[C@H]%10C[C@@H]9CO%10)nc78)c(C(F)F)n6)CC5)CC4)C3)c21` (stereo partly drawn) [I-117], the bioavailability in data set [1] is ≥ 5%. Moreover, the 50% degradation concentration (DC50) on IRAK4 was < 0.01 µM.

Take `COc1cc2nn([C@H]3CC[C@H](CN4CC[C@@H](c5cccc6c5n(C)c(=O)n6C5CCC(=O)NC5=O)[C@H](F)C4)CC3)cc2cc1NC(=O)c1cncc(C(F)(F)F)c1` (stereo partly drawn) [I-252]: the bioavailability in data set [1] is ≤ 5%. Further, on IRAK4, the DC50 was < 0.01 µM.

Take `O=C1CCN(c2cc(C(=O)N3CCN(C[C@H]4CC[C@H](n5cc6cc(NC(=O)c7cncc(C(F)(F)F)n7)ccc6n5)CC4)CC3)ncc2Cl)C(=O)N1` [I-305]: the bioavailability in data set [1] is ≤ 5%. The half-maximal degradation concentration (DC50) at IRAK4 is > 0.2 µM.

As to `Cc1cncc(C(=O)Nc2ccc3nn([C@H]4CC[C@H](CN5CC[C@@H](c6cccc7c6n(C)c(=O)n7C6CCC(=O)NC6=O)[C@H](F)C5)CC4)cc3c2)n1` (stereo partly drawn) [I-307], the bioavailability in data set [1] was ≤ 5%. The DC50 at IRAK4 is < 0.01 µM.

Regarding `Cn1c(=O)n([C@@H]2CCC(=O)NC2=O)c2cccc([C@@H]3CCN(C[C@H]4CC[C@H](n5cc6cc(NC(=O)c7cncc(C(F)(F)F)n7)ccc6n5)CC4)C[C@H]3F)c21` (single isomer, unassigned) [I-208], in data set [1], the bioavailability was ≤ 5%. For the same molecule, the 50% degradation concentration (DC50) at IRAK4 was < 0.01 µM.

As to `Cn1c(=O)n(C2CCC(=O)NC2=O)c2cccc([C@@H]3CCN(C[C@H]4CC[C@H](n5cc6cc(NC(=O)c7cncc(C8CC8)n7)ncc6n5)CC4)C[C@H]3F)c21` (stereo partly drawn) [I-338], the bioavailability in data set [1] was ≤ 5%. The DC50 at IRAK4 was < 0.01 µM.

In the case of `COc1cc2nc([C@H]3CC[C@H](CN4CC[C@H](c5cccc6c5n(C)c(=O)n6C5CCC(=O)NC5=O)C(F)(F)C4)CC3)sc2cc1NC(=O)c1cncc(C#N)c1` (single isomer, unassigned) [I-140], in data set [1], the bioavailability is ≤ 5%. The DC50 on IRAK4 was > 0.2 µM.

For `Cn1c(=O)n(C2CCC(=O)NC2=O)c2cccc([C@@H]3CCN(C[C@H]4CC[C@H](n5cc6cc(NC(=O)c7cncc(C(F)(F)F)n7)cc(F)c6n5)CC4)C[C@H]3F)c21` (stereo partly drawn) [I-356], in data set [1], the bioavailability was ≤ 5%. Besides, the DC50 at IRAK4 is < 0.01 µM.

Regarding `COc1ccc2c(c1[C@H]1CCN(C[C@H]3CC[C@H](n4cc5cc(NC(=O)c6cncc(C(F)(F)F)n6)ccc5n4)CC3)C[C@@H]1F)n(C)c(=O)n2C1CCC(=O)NC1=O` (stereo partly drawn) [I-352], the bioavailability in data set [1] is ≤ 5%. Further, on IRAK4, the DC50 is < 0.01 µM.

Consider `COc1cc2nn([C@H]3CC[C@H](CN4CC[C@H](c5cccc6c5c(C)nn6C5CCC(=O)NC5=O)[C@@H](F)C4)CC3)cc2cc1NC(=O)c1cncc(C#N)c1` (single isomer, unassigned) [I-266], for which, in data set [1], the bioavailability is ≤ 5%. The DC50 on IRAK4 was < 0.01 µM.

Regarding `CN(C[C@H]1CC[C@H](c2cn3cc(NC(=O)c4cncc(C(F)(F)F)n4)ccc3n2)CC1)[C@@H]1CCN(c2cccc3c2n(C)c(=O)n3C2CCC(=O)NC2=O)C[C@H]1F` (single isomer, unassigned) [I-293], the bioavailability in data set [1] is ≤ 5%. At IRAK4, this molecule came in with a half-maximal degradation concentration (DC50) of 0.01 to 0.1 µM.

Regarding `Cn1c(=O)n(C2CCC(=O)NC2=O)c2cccc(N3CC4(CCN(C[C@H]5CC[C@H](c6nc7cc(C(C)(C)O)c(NC(=O)c8cncc(C#N)c8)cc7o6)CC5)CC4(F)F)C3)c21` (stereo partly drawn) [I-410], the bioavailability in data set [1] was ≥ 5%. Moreover, at IRAK4, the DC50 is > 0.2 µM.

As for `COc1ccc2c(c1[C@@H]1CCN(C[C@H]3CC[C@H](n4cc5cc(NC(=O)c6cncc(C(F)(F)F)n6)ccc5n4)CC3)C[C@H]1F)n(C)c(=O)n2C1CCC(=O)NC1=O` (stereo partly drawn) [I-347], in data set [1], the bioavailability was ≥ 5%. For the same molecule, the DC50 on IRAK4 is < 0.01 µM.

Take `CN(C[C@H]1CC[C@H](n2cc(NC(=O)c3cnn4ccc(N5C[C@H]6C[C@@H]5CO6)nc34)c(C(F)F)n2)CC1)[C@H]1CCN(c2cccc3c2n(C)c(=O)n3C2CCC(=O)NC2=O)C[C@@H]1F` (single isomer, unassigned) [I-28]: the bioavailability in data set [1] is ≥ 5%. On IRAK4, the 50% degradation concentration (DC50) is < 0.01 µM.

As for `Cn1c(=O)n(C2CCC(=O)NC2=O)c2cccc([C@@H]3CCN(C[C@H]4CC[C@H](n5cc6cc(NC(=O)c7cncc(C#N)c7)c(C(C)(C)O)cc6n5)CC4)C[C@H]3F)c21` (stereo partly drawn) [I-188], in data set [1], the bioavailability is ≤ 5%. Further, the 50% degradation concentration (DC50) on IRAK4 was < 0.01 µM.

For the molecule `COc1cc2nn([C@H]3CC[C@H](CN4CC[C@H](c5cccc6c5n(C)c(=O)n6C5CCC(=O)NC5=O)C(F)(F)C4)CC3)cc2cc1NC(=O)c1cncc(C#N)c1` (single isomer, unassigned) [I-106], the bioavailability in data set [1] was ≤ 5%. Further, at IRAK4, the half-maximal degradation concentration (DC50) is < 0.01 µM.

In the case of `Cn1c(=O)n(C2CCC(=O)NC2=O)c2cccc([C@@H]3CCN(C[C@H]4CC[C@H](c5nc6cc(C(C)(C)O)c(NC(=O)c7cccc(C(F)(F)F)n7)cc6o5)CC4)C[C@H]3F)c21` (stereo partly drawn) [I-167], the bioavailability in data set [1] was ≥ 5%. Besides, the DC50 at IRAK4 is < 0.01 µM.

Regarding `COc1cc2nn([C@H]3CC[C@H](CN4CC[C@@H](c5cccc6c5n(C)c(=O)n6C5CCC(=O)NC5=O)[C@H](F)C4)CC3)cc2cc1C(=O)Nc1cccc(C(F)(F)F)n1` (stereo partly drawn) [I-200], the bioavailability in data set [1] was ≤ 5%. Further, at IRAK4, the DC50 is < 0.01 µM.

In the case of `Cn1c(=O)n(C2CCC(=O)NC2=O)c2cccc([C@@H]3CCN(C[C@H]4CC[C@H](c5cn6cc(NC(=O)c7cccc(C(F)(F)F)c7)ccc6n5)CC4)C[C@H]3F)c21` (stereo partly drawn) [I-274], in data set [1], the bioavailability is ≤ 5%. In addition, the DC50 at IRAK4 was < 0.01 µM.

For `Cn1c(=O)n(C2CCC(=O)NC2=O)c2cccc([C@H]3CCN(C[C@H]4CC[C@H](n5cc(NC(=O)c6cnn7ccc(N8C[C@H]9C[C@@H]8CO9)nc67)c(C(F)F)n5)CC4)CC3(F)F)c21` (single isomer, unassigned) [I-332], the bioavailability in data set [1] was ≤ 5%. Also, the DC50 on IRAK4 is < 0.01 µM.

For the molecule `Cn1c(=O)n(C2CCC(=O)NC2=O)c2cccc([C@@H]3CCN(C[C@H]4CC[C@H](n5cc6cc(NC(=O)c7cncc(C(F)(F)F)n7)ncc6n5)CC4)CC3(F)F)c21` (single isomer, unassigned) [I-206], the bioavailability in data set [1] was ≥ 5%. For the same molecule, the 50% degradation concentration (DC50) at IRAK4 fell in the range of 0.01 to 0.1 µM.

With `Cn1nc(C2CCC(=O)NC2=O)c2cccc([C@H]3CCN(C[C@H]4CC[C@H](n5cc6cc(NC(=O)c7cncc(C#N)c7)c(C(C)(C)O)cc6n5)CC4)CC3(F)F)c21` (single isomer, unassigned) [I-223], the bioavailability in data set [1] is ≤ 5%. For the same molecule, the DC50 at IRAK4 is < 0.01 µM.

With `COc1cc2nn([C@H]3CC[C@H](CN4CCC5(CCN(c6cccc7c6n(C)c(=O)n7C6CCC(=O)NC6=O)CC5)C(F)(F)C4)CC3)cc2cc1C(=O)Nc1cccc(C(F)(F)F)n1` (stereo partly drawn) [I-396], the bioavailability in data set [1] was ≤ 5%. Besides, on IRAK4, the DC50 is > 0.2 µM.

In the case of `Cn1c(=O)n(C2CCC(=O)NC2=O)c2cccc([C@@H]3CCN(C[C@H]4CC[C@H](n5cc6cc(NC(=O)c7cncc(C#N)c7)ccc6n5)CC4)C[C@H]3F)c21` (stereo partly drawn) [I-129], the bioavailability in data set [1] is ≤ 5%. For the same molecule, the DC50 on IRAK4 was < 0.01 µM.

With `COc1ccc2c(c1[C@@H]1CCN(C[C@H]3CC[C@H](n4cc5cc(NC(=O)c6cncc(C(F)(F)F)n6)ccc5n4)CC3)CC1(F)F)n(C)c(=O)n2C1CCC(=O)NC1=O` (single isomer, unassigned) [I-391], in data set [1], the bioavailability was ≥ 5%. Further, at IRAK4, the DC50 is < 0.01 µM.

As for `Cn1c(=O)n(C2CCC(=O)NC2=O)c2cccc([C@@H]3CCN(C[C@H]4CC[C@H](n5cc6cc(NC(=O)c7cncc(C(F)F)n7)ccc6n5)CC4)C[C@H]3F)c21` (stereo partly drawn) [I-323], in data set [1], the bioavailability was ≤ 5%. Also, the DC50 on IRAK4 was < 0.01 µM.

For `Cn1nc(C2CCC(=O)NC2=O)c2cccc(N3CCC4(CCN(C[C@H]5CC[C@H](n6cc7cc(NC(=O)c8cncc(C#N)c8)c(C(C)(C)O)cc7n6)CC5)CC4(F)F)CC3)c21` (stereo partly drawn) [I-220], the bioavailability in data set [1] was ≤ 5%.

In the case of `Cn1c(=O)n(C2CCC(=O)NC2=O)c2cccc(N3CC4(CCN(C[C@H]5CC[C@H](n6cc7cc(NC(=O)c8cncc(C(F)(F)F)n8)ncc7n6)CC5)CC4(F)F)C3)c21` (stereo partly drawn) [I-221], in data set [1], the bioavailability is ≤ 5%.
